Experimental data published in patent US5310745A, “Antiviral compounds” (priority 1992, dated 1994).

Key:
Format in all cases: cell-based
[1] = test system: Sheep choroid plexus (SCP) cells; assay: Toxicity of compounds in control wells without virus, graded morphologically
Experimental: (§1) Sheep choroid plexus (SCP) cells were obtained from American Type Culture Collection (ATCC) catalogue number CRL 1700 and were routinely passaged in vitro in Dulbecco's Modified Eagles (DME) medium supplemented with 20% fetal bovine serum (FBS). SCP cells were passaged once per week at a 1:2 or 1:3 split ratio. Visna was titrated by plaque assay in six-well plates. Virus pools were stored at -70° C.
(§2) SCP cells were cultured in 6-well plates to confluence. Wells were washed two times with serum free Minimal Essential Medium (MEM) to remove FBS. 0.2 ml of virus was added per well in MEM supplemented with 4 mM glutamine and gentamycin. After 1 hour adsorption, the virus was aspirated from each well. The appropriate concentration of each compound in 5 ml of Medium 199 (M-199) supplemented With 2% lamb serum, 4 mM glutamine, 0.5% agarose and gentamycin was added to each well. Cultures were incubated at 37° C. in a humidified 5% CO2 incubator for 3-4 weeks. To terminate the test: cultures were fixed in 10% formalin, the agar removed, the monolayers stained with 1% crystal violet and plaques counted. Each compound concentration was run in triplicate. […] 0 is no toxicity observed while 4 is total lysing of the cell monolayer.

[2] = test system: Sheep choroid plexus (SCP) cells; assay: as above; parameters: key: 0: no toxicity observed; 4: total lysing of the cell monolayer; conditions: graded 0 to 4, Table 2
Experimental: as §1, §2

[3] = test system: visna virus; assay: Plaque reduction assay, inhibition of visna virus in vitro; parameters: key to Antiviral Activity: A: active compound; I: inactive compound; conditions: for inhibition at 10 µM / inhibition at 100 µM / inhibition at 1000 µM / inhibition at 1 µM: Visna-maedi virus; for inhibition at 10 µM / inhibition at 100 µM / inhibition at 1000 µM / inhibition at 1 µM / % Plaque Reduction: Table 2; for inhibition at 1 µM: 0.001 mM; for Antiviral Activity: Table 1
From the text: Visna virus, a lentivirus genetically very similar to the AIDS virus, is pathogenic for sheep and goats. See Sonigo et al., Cell 42, 369-382 (1985); Haase, Nature 322, 130-136 (1986). Inhibition of visna virus replication in vitro as a useful model for human immunodeficiency virus (HIV) and its inhibition by test compounds has been described by Franket al., Antimicrobial Agents and Chemotherapy 31 (9), 1369-1374 (1987). The N-butyl derivative of 1,5-dideoxy-1,5-imino-D-glucitol, also referred to as n-butyl-deoxynojirimycin (N-Bu-DNJ), was used as a control standard for comparison with various novel compounds of this invention.
Various compounds as prepared above were tested for inhibition of visna virus in vitro in a plaque reduction assay as follows:
as §1, §2

[4] = 0.03125 mM, 0 to 4 scale, Table 1
[5] = 0.01 mM, graded 0 to 4, Table 2

| Structure (SMILES) | Toxicity ([1]; 0.1 mM, graded 0 to 4, Table 2) | Toxicity ([1]; 1.0 mM, graded 0 to 4, Table 2) | Toxicity ([2]; 0.01 mM) | inhibition at 10 µM ([3]; 0.01 mM) [%] | inhibition at 100 µM ([3]; 0.1 mM) [%] | inhibition at 1000 µM ([3]; 1.0 mM) [%] | Toxicity ([2]; 0.001 mM) | inhibition at 1 µM [3] [%] | Toxicity ([2]; 1.0 mM) | Toxicity ([2]; 0.1 mM) | % Plaque Reduction ([3]; 1.0 mM) | also measured |
| --- | --- | --- | --- | --- | --- | --- | --- | --- | --- | --- | --- | --- |
| CC(=O)OC[C@@H]1[C@@H](OC(C)=O)[C@H](OC(C)=O)[C@@H](OC(C)=O)CN1C(=O)c1cccnc1 [Example 35, 1,5-[(3-Nicotinoyl)imino]-1,5-dideoxy-D-glucitol, tetraacetate] | 1 | 3 | 0 | 10 | 90 | 94 |  |  |  |  |  |  |
| CCCCN1C[C@H](OC(=O)C(C)(C)C)[C@@H](O)[C@H](OC(=O)C(C)(C)C)[C@H]1COC(=O)C(C)(C)C [Example 50B] | 1 | 2 | 0 | 33 | 75 | 76 | 0 | 17 |  |  |  |  |
| CCCCN1C[C@H](OC(=O)CCC(C)C)[C@@H](OC(=O)CCC(C)C)[C@H](OC(=O)CCC(C)C)[C@H]1COC(=O)CCC(C)C [Example 49, 1,5-(Butylimino)-1,5-dideoxy-D-glucitol, tetra(4-methylpentanoate)] |  |  |  |  |  | 98 |  |  | 0 |  |  |  |
| CC(=O)OC[C@@H]1[C@@H](OC(C)=O)[C@H](OC(C)=O)[C@@H](OC(C)=O)CN1C [Example 10, 1,5-(Methylimino)-1,5-dideoxy-D-glucitol, tetraacetate] |  |  |  |  |  |  |  |  |  |  |  | Toxicity [1, 4]: 1; Toxicity ([1]; 0.0625 mM, 0 to 4 scale, Table 1): 2; Toxicity ([1]; 0.125 mM, 0 to 4 scale, Table 1): 3; Antiviral Activity ([3]; 0.03125 mM): A; Antiviral Activity ([3]; 0.0625 mM): A; Antiviral Activity ([3]; 0.125 mM): A |
| CCCC(C)CN1C[C@H](OC(C)=O)[C@@H](OC(C)=O)[C@H](OC(C)=O)[C@H]1COC(C)=O (stereo partly drawn) [Example 33, 1,5-[(2-Methylpentyl)imino]-1,5-dideoxy-D-glucitol, tetraacetate] |  | 3 | 0 |  |  |  |  |  |  | 0 | 63% | % Plaque Reduction ([3]; 0.01 mM): 21%; % Plaque Reduction ([3]; 0.1 mM): 28% |
| CCCCCCCCCCc1ccc(C(=O)N2C[C@H](OC(C)=O)[C@@H](OC(C)=O)[C@H](OC(C)=O)[C@H]2COC(C)=O)cc1 [Example 47, 1,5-[(4-Decylbenzoyl)imino]-1,5-dideoxy-D-glucitol, tetraacetate] | 1 |  | 0 | 64 | 86 |  | 0 | 9 | 4 |  | Toxic |  |
| CCCCN1C[C@H](OC(=O)CCC2CCCC2)[C@@H](OC(=O)CCC2CCCC2)[C@H](OC(=O)CCC2CCCC2)[C@H]1COC(=O)CCC1CCCC1 [Example 56, 1,5-(Butylimino)-1,5-dideoxy-D-glucitol, tetra(3-cyclopentylpropanoate)] |  |  | 0 | 13 | 16 | 56 |  |  | 0 | 0 |  |  |
| CC(=O)OC[C@@H]1[C@@H](OC(C)=O)[C@H](OC(C)=O)[C@@H](OC(C)=O)CN1C(=O)C=Cc1ccccc1 [Example 36, 1,5-(Cinnamoylimino)-1,5-dideoxy-D-glucitol, tetraacetate] |  |  | 0 | 76 |  |  | 0 | 42 | 4 | 4 | Toxic | % Plaque Reduction ([3]; 0.1 mM): Toxic |
| CC(=O)OC[C@@H]1[C@@H](OC(C)=O)[C@H](OC(C)=O)[C@@H](OC(C)=O)CN1C(=O)Cc1ccc(Cl)cc1 [Example 40, 1,5-[(4-Chlorophenyl)acetylimino]-1,5-dideoxy-D-glucitol, tetraacetate] | 3 |  |  | 46 |  |  | 0 | 29 | 4 |  |  | Toxicity [1, 5]: 1 |
| CCCC(=O)OC[C@@H]1[C@@H](OC(=O)CCC)[C@H](OC(=O)CCC)[C@@H](OC(=O)CCC)CN1C(=O)c1ccccc1OC(C)=O [Example 52, 1,5-[[2-(Acetyloxy)benzoyl]imino]-1,5-dideoxy-D-glucitol, tetrabutanoate] |  |  | 0 | 37 | 98 |  | 0 | 16 | 4 | 0 | Toxic |  |
| CC(=O)OC[C@@H]1[C@@H](OC(C)=O)[C@H](OC(C)=O)[C@@H](OC(C)=O)CN1CCCC(F)(F)F [Example 63, 1,5-(4,4,4-Trifluorobutylimino)-1,5-dideoxy-D-glucitol, tetraacetate] |  | 2 |  |  | 2 | 90 |  |  |  | 0 |  |  |
| CCCC(=O)OC[C@@H]1[C@@H](O)[C@H](OC(=O)CCC)[C@@H](OC(=O)CCC)CN1CCCCCC(F)(F)F [Example 66, 1,5-(6,6,6-Trifluorohexylimino)-1,5-dideoxy-D-glucitol, 2,3,6-tributyrate] | 1 | 2 | 0 | 38 | 88 | 100 | 0 | -3 |  |  |  |  |
| CCCC(=O)OC[C@@H]1[C@@H](OC(=O)CCC)[C@H](OC(=O)CCC)[C@@H](OC(=O)CCC)CN1CCCCCCCC(F)(F)F [Example 62, 1,5-(8,8,8-Trifluorooctylimino)-1,5-dideoxy-D-glucitol, tetrabutyrate] | 1 | 2 |  | 49 | 91 | 97 |  |  |  |  |  | Toxicity [1, 5]: 1 |
| CCC(CC)CN1C[C@H](OC(C)=O)[C@@H](OC(C)=O)[C@H](OC(C)=O)[C@H]1COC(C)=O [Example 27, 1,5-[(2-Ethylbutyl)imino]-1,5-dideoxy-D-glucitol, tetraacetate] |  | 3 |  |  | 12 | 65 |  |  |  | 0 |  |  |
| CCCCN1C[C@H](OC(C)=O)[C@@H](OC(C)=O)[C@H](O)[C@H]1CO [Example 28, 1,5-(Butylimino)-1,5-dideoxy-D-glucitol, 2,3-diacetate] | 2 |  |  |  | 44 | 87 |  |  | 4 |  |  |  |
| CC(=O)OC[C@@H]1[C@@H](OC(C)=O)[C@H](OC(C)=O)[C@@H](OC(C)=O)CN1C(=O)COc1ccccc1 [Example 25, 1,5-[(Phenoxymethyl)carbonylimino]-1,5-dideoxy-D-glucitol, tetraacetate] |  |  |  |  |  |  |  |  |  |  |  | Toxicity ([1]; 0.1 mM, 0 to 4 scale, Table 1): 1; Toxicity ([1]; 1.0 mM, 0 to 4 scale, Table 1): 2; Antiviral Activity ([3]; 0.1 mM): A; Antiviral Activity ([3]; 1.0 mM): A |
| CCCCCCN1C[C@H](OC(C)=O)[C@@H](OC(C)=O)[C@H](OC(C)=O)[C@H]1COC(C)=O [Example 12, 1,5-(Hexylimino)-1,5-dideoxy-D-glucitol, tetraacetate] |  |  |  |  |  |  |  |  |  |  |  | Toxicity ([1]; 0.0075 mM, 0 to 4 scale, Table 1): 1; Toxicity ([1]; 0.0156 mM, 0 to 4 scale, Table 1): 1; Toxicity [1, 4]: 2; Antiviral Activity ([3]; 0.0075 mM): A; Antiviral Activity ([3]; 0.0156 mM): A; Antiviral Activity ([3]; 0.03125 mM): A |
| CC(=O)OC[C@@H]1[C@@H](OC(C)=O)[C@H](OC(C)=O)[C@@H](OC(C)=O)CN1C(=O)CCOc1ccc(Cl)cc1 [Example 51, 1,5-Dideoxy-1,5-[[3-(4-chlorophenoxy)-1-oxopropyl]-imino]-D-glucitol, tetraacetate] | 1 |  | 0 | 57 | 91 |  | 0 | 12 | 4 |  | Toxic |  |
| CCCC(=O)OC[C@@H]1[C@@H](OC(=O)CCC)[C@H](OC(=O)CCC)[C@@H](OC(=O)CCC)CN1C(=O)Cc1cccs1 [Example 55, 1,5-Dideoxy-1,5-[[1-oxo-2-(2-thienyl)ethyl]imino]-D-glucitol, tetrabutanoate] |  |  | 0 | 37 | 95 |  | 0 | 11 | 4 | 0 | Toxic |  |
